Data set [1] can be described thus: Toxicity in erythrocytes (unknown origin) assessed as hemolytic activity. Format: cell-based. As to conditions: erythrocyte.
The next data set has as its system Candida albicans. Put plainly: Antifungal activity against Candida albicans after 48 hrs by broth microdilution method. The format is functional. Background: In broth dilution the organism is exposed to a series of concentrations in liquid medium.

≈ marks a conversion by molar mass, not a printed value. Calls of active or inactive are those of the source.

Take `C=C/C=C/CC/C=C/C=C/C=C/CC/C=C/[C@H](O)[C@H](O)[C@@H]1O[C@@H]([C@H](O)[C@H](O)C(=C)CC[C@@H](O)[C@H]2C[C@@H](O)[C@@H](O)[C@H]([C@@H](O)[C@H](O)/C=C(\C)CCC(O)CC(O)C(O)C(C)CC(O)C(O)CC(C)CCC(O)CC(=O)CC(O)CCCC(O)CCCCC(O)CO)O2)C[C@@H](O)[C@H]1O` (some centres undefined): the Activity result in data set [1] is given as “Toxic”. In the data set on Candida albicans, the MIC (in general, the smallest concentration in the dilution series that meets the test's criterion for growth inhibition) amounted to 9 µg/mL (≈ 6.62 µM).
With `C=C/C=C/CC/C=C/C=C/C=C/CC/C=C/[C@H](O)[C@H](O)[C@@H]1O[C@@H]([C@H](O)[C@H](O)C(=C)CC[C@@H](O)[C@H]2C[C@@H](O)[C@@H](O)[C@H]([C@@H](O)[C@H](O)/C=C(\C)CCC(O)CC(O)C(O)C(C)CC(O)C(O)CC(C)CCC(O)CC(=O)CC(O)CCCC(CCCCC(O)CO)OS(=O)(=O)[O-])O2)C[C@@H](O)[C@H]1O.[Na+]` (some centres undefined), the Activity result in data set [1] was “Toxic”. The outcome in the data set with Candida albicans was inactive.

Source of the values: ChEMBL document CHEMBL3297673, “Antifungal amphidinol 18 and its 7-sulfate derivative from the marine dinoflagellate Amphidinium carterae” (J Nat Prod, 2014).
